Reference: patent US7452688B2, “Transformed cell with enhanced sensitivity to antifungal compound and use thereof” (Sumitomo Chemical Company, Limited, priority 2002, dated 2008)

Tests used:
Assay type in all cases: cell-based, Saccharomyces cerevisiae
[1] = tested on: AH22; assay: Antifungal compound sensitivity test, control yeast AH22 (Example 6, Table 2); details: absorbance at 600 nm relative to 0 ppm = 100
Description: Degrees of growths of both of the transformed budding yeasts cultured under the presence of Compounds (1) to (7) and budding yeast as a control therefor are shown in Table 2. Degrees of growths of both of the transformed budding yeasts and budding yeast as a control are expressed by a relative value in percentage, letting the absorbance at 600 nm at the concentration of the Compound of 0 ppm to be 100. It was confirmed that an inhibiting degree of growth of the transformed budding yeast TM182-BcOS1-I 365S by each test substance was grater than an inhibiting degree of growth of the transformed budding yeast AH22-BcOS1-I 365S by each test substance, and the transformed budding yeast TM182-BcOS1-I365S was a transformed cell with the enhanced sensitivity to an antifungal compound as compared with the transformed budding yeast AH22-BcOS1-I365S.

[2] = tested on: transformed budding yeast TM182-RsOS1; assay: Antifungal compound sensitivity test of transformed budding yeast TM182-RsOS1 (Example 19); details: for Degree of growth of budding yeast TM182-RsOS1 Gal-Ura-Leu medium: control medium, 30° C. 42.5 hours; for Degree of growth of budding yeast TM182-RsOS1 Gul-Ura-Leu medium: 30° C. 26.8 hours
Description: Similarly, the transformed budding yeast TM182-RsOS1 prepared in Example 18 was cultured at 30° C. for 18 hours in a Glu-Ura-Leu medium. The absorbance at 600 nm of the grown transformed budding yeast in a cell suspension was measured, and a cell suspension diluted with sterilized distilled water to the absorbance of 0.1 was prepared. Further, a cell suspension in which the transformed budding yeast TM182-RsOS1 was diluted 50-fold with a Glu-Ura-Leu medium. As a control, the transformed budding yeast TM182-RsOS1 was cultured at 30° C. for 18 hours in a Gal-Ura-Leu medium. The absorbance at 600 nm of the grown transformed budding yeast in a cell suspension was measured, and a cell suspension diluted with sterilized distilled water to the absorbance of 0.1 was prepared. Further, a cell suspension in which the transformed budding yeast TM182-RsOS1 was diluted 50-fold with a Gal-Ura-Leu medium.
A solution in which each of Compounds (1) to (5) was dissolved in dimethylsulfoxide (DMSO) to the concentration of 600 ppm, and a solution in which each of Compounds (6) and (7) was dissolved in dimethylsulfoxide (DMSO) to the concentration of 60 ppm were prepared, and two microplates were prepared in which each 2.0 μL per well of the Compound-DMSO solution and DMSO as a control were dispensed into 2 wells. In one microplate among them, each 100 μL of cell suspensions of the transformed budding yeast TM182-RsOS1 which had been prepared by dilution with a Glu-Ura-Leu medium as described above was dispensed, and cultured by allowing to stand at 30° C. for 26.8 hours. In another microplate, as described above, as a control, each 100 μL of cell suspensions of the transformed budding yeast TM182-RsOS1 which had been prepared by dilution with a Gal-Ura-Leu medium was dispensed, and cultured at 30° C. for 42.5 hours. After culturing the absorbance at 600 nm of each well was measured with a microplate reader.
A degree of growth of the transformed budding yeast is expressed as a relative value in percentage, letting the absorbance at 600 nm at the concentration of the Compound of 0 ppm to be 100. It was confirmed that an inhibiting degree of growth of the transformed budding yeast TM182-RsOS1 by each test substance was grater than an inhibiting degree of growth of the transformed budding yeast AH22-RsOS1 by each test substance, and the transformed budding yeast TM182-RsOS1 was a transformed cell with the enhanced sensitivity to an antifungal compound as compared with the transformed budding yeast AH22-RsOS1.

[3] = tested on: AH22 strain; assay: Antifungal compound sensitivity test, control yeast AH22 strain (Example 3); details: 30° C. 48 hours, absorbance at 600 nm relative to 0 ppm = 100
Description: The transformed budding yeast AH22-BcOS1 prepared in Example 2 was cultured while shaking at 30° C. for 18 hours in a Glu-Leu medium. As a control, the AH22 strain was similarly cultured while shaking at 30° C. for 18 hours in a Glu medium. The absorbance at 600 nm of each of the grown transformed budding yeasts in a cell suspension was measured, and a cell suspension diluted with sterilized distilled water to the absorbance of 0.1 was prepared. Further, a cell suspension in which the aforementioned cell suspension of the transformed budding yeast AH22-BcOS1 was diluted 200-fold with a Glu-Leu medium, and a cell suspension in which the aforementioned cell suspension of the AH22 strain was diluted 200-fold with a Glu medium were prepared. A solution in which each of Compounds (1) to (3) was dissolved in dimethylsulfoxide (DMSO) to the concentration of 60 ppm, a solution in which each of Compounds (4) and (5) was dissolved in dimethylsulfoxide (DMSO) to the concentration of 2000 ppm, and a solution in which each of Compounds (6) and (7) was dissolved in dimethylsulfoxide (DMSO) to the concentration of 20 ppm were prepared, and two microplates were prepared in which each 2.0 μL per well of the Compound solution and DMSO as a control were dispensed into two wells. In one microplate among them, each 200 μL of cell suspensions of the transformed budding yeast AH22-BcOS1 which had been prepared by dilution as described above was dispensed, and cultured by allowing to stand at 30° C. for 48 hours. In another microplate, each 200 μL of the cell suspensions of the control yeast AH22 strain which had been prepared by dilution as described above was dispensed, and cultured by allowing to stand at 30° C. for 48 hours. After culturing, the absorbance at 600 nm of each well was measured with a microplate reader.
Degree of growths of both of the transformed budding yeasts cultured under the presence of each of Compound (1) to (7) and budding yeast as a control therefor are shown in Table 1. Degree of growths of both of the transformed budding yeasts and budding yeasts as a control therefor are expressed by a relative value in percentage, letting the absorbance at 600 nm in a well having the concentration of the aforementioned Compound of 0 ppm to be 100. It was confirmed that an inhibiting degree of growth of TM182-BcOS1 by each test substance was grater than an inhibiting degree of growth of AH22-BcOS1 by each test substance, and the TM182-BcOS1 was a transformed cell with the enhanced sensitivity to an antifungal compound as compared with AH22-BcOS1.

Question: Which results are given for `CC12CC1(C)C(=O)N(c1cc(Cl)cc(Cl)c1)C2=O` (stereo not shown) [Compound (1), Procymidone]?
Answer: Degree of growth of budding yeast (%) AH22 Glu medium ([1]; final concentration 6 ppm): 88%; Degree of growth of budding yeast TM182-RsOS1 Gal-Ura-Leu medium ([2]; final concentration 6.0 ppm): 108%; Degree of growth of budding yeast TM182-RsOS1 Gul-Ura-Leu medium ([2]; final concentration 6.0 ppm): 15%; Degree of growth of budding yeast (%) AH22 Glu medium ([3]; final concentration 0.6 ppm): 99%

Question: With `CC(C)NC(=O)N1CC(=O)N(c2cc(Cl)cc(Cl)c2)C1=O` [Compound (2), Iprodione] as the compound, how does the “Degree of growth of budding yeast (%) AH22 Glu medium” value (“Degree … (%) AH22 Glu medium” for short) ([1]; final concentration 6 ppm) read?
Answer: The value was 91%.

Question: What about the “Degree of growth of budding yeast TM182-RsOS1 Gal-Ura-Leu medium” value ([2]; final concentration 6.0 ppm) of the same compound?
Answer: The value was 96%.

Question: What about the “Degree of growth of budding yeast TM182-RsOS1 Gul-Ura-Leu medium” value ([2]; final concentration 6.0 ppm) of the same compound?
Answer: The value was 11%.

Question: And the “Degree … (%) AH22 Glu medium” value ([3]; final concentration 0.6 ppm)?
Answer: Its value is 99%.

Question: For `C=CC1(C)OC(=O)N(c2cc(Cl)cc(Cl)c2)C1=O` (stereo not shown) [Compound (3), Vinclozolin], which “Degree … (%) AH22 Glu medium” value ([1]; final concentration 6 ppm) is on record?
Answer: The value was 87%.

Question: And the “Degree of growth of budding yeast TM182-RsOS1 Gal-Ura-Leu medium” value ([2]; final concentration 6.0 ppm)?
Answer: Its value is 101%.

Question: And the “Degree of growth of budding yeast TM182-RsOS1 Gul-Ura-Leu medium” value ([2]; final concentration 6.0 ppm)?
Answer: Its value is 27%.

Question: What about the “Degree … (%) AH22 Glu medium” value ([3]; final concentration 0.6 ppm) of the same compound?
Answer: The value was 98%.

Question: `O=[N+]([O-])c1c(Cl)c(Cl)c(Cl)c(Cl)c1Cl` [Compound (4), Quintozene] was tested. Which “Degree … (%) AH22 Glu medium” value ([1]; final concentration 20 ppm) did it give?
Answer: The value was 96%.

Question: And the “Degree of growth of budding yeast TM182-RsOS1 Gal-Ura-Leu medium” value ([2]; final concentration 6.0 ppm)?
Answer: Its value is 88%.

Question: And the “Degree of growth of budding yeast TM182-RsOS1 Gul-Ura-Leu medium” value ([2]; final concentration 6.0 ppm)?
Answer: Its value is 17%.

Question: And the “Degree … (%) AH22 Glu medium” value ([3]; final concentration 20 ppm)?
Answer: The value was 96%.

Question: How did the “Degree … (%) AH22 Glu medium” value ([1]; final concentration 20 ppm) turn out when `COP(=S)(OC)Oc1c(Cl)cc(C)cc1Cl` [Compound (5), Tolclofos-methyl] was run?
Answer: The value was 80%.

Question: What about the “Degree of growth of budding yeast TM182-RsOS1 Gal-Ura-Leu medium” value ([2]; final concentration 6.0 ppm) of the same compound?
Answer: Its value is 101%.

Question: And the “Degree of growth of budding yeast TM182-RsOS1 Gul-Ura-Leu medium” value ([2]; final concentration 6.0 ppm)?
Answer: Its value is 9%.

Question: What about the “Degree … (%) AH22 Glu medium” value ([3]; final concentration 20 ppm) of the same compound?
Answer: Its value is 97%.

Question: Which results are given for `N#Cc1c[nH]cc1-c1cccc2c1OC(F)(F)O2` [Compound (6), Fludioxonil]?
Answer: Degree of growth of budding yeast (%) AH22 Glu medium ([1]; final concentration 0.2 ppm): 92%; Degree of growth of budding yeast TM182-RsOS1 Gal-Ura-Leu medium ([2]; final concentration 0.6 ppm): 100%; Degree of growth of budding yeast TM182-RsOS1 Gul-Ura-Leu medium ([2]; final concentration 0.6 ppm): 12%; Degree of growth of budding yeast (%) AH22 Glu medium ([3]; final concentration 0.2 ppm): 99%

Question: What does the source list for `N#Cc1c[nH]cc1-c1cccc(Cl)c1Cl` [Compound (7), Fenpiclonil]?
Answer: Degree of growth of budding yeast (%) AH22 Glu medium ([1]; final concentration 0.2 ppm): 91%; Degree of growth of budding yeast TM182-RsOS1 Gal-Ura-Leu medium ([2]; final concentration 0.6 ppm): 99%; Degree of growth of budding yeast TM182-RsOS1 Gul-Ura-Leu medium ([2]; final concentration 0.6 ppm): 31%; Degree of growth of budding yeast (%) AH22 Glu medium ([3]; final concentration 0.2 ppm): 101%
